Values quoted from earlier work as cited in US5434174A, “Isoxazole derivatives for the treatment of irritable bowel syndrome” (priority 1993, dated 1995).

Settings: IBS therapy; cited from earlier work

Compound: CCN(CC)CCOC(=O)C1(C2CCCCC2)CCCCC1 [Bentyl]
- side effects: serious side effects
